The target in data set [1] is T1, Potassium voltage-gated channel subfamily A member 5 (Homo sapiens, UniProt P22460). The data set is described as follows: Inhibition of human Kv1.5 channel expressed in mouse L929 cells at >1 uM. In kind it is cell-based.
Data set [2] deals with T1, Potassium voltage-gated channel subfamily A member 5. Put plainly: Inhibition of human Kv1.5 channel expressed in mouse L929 cells. It is filed as cell-based.
A short description of data set [3]: Volume of distribution at steady state in rat at 10 umol/kg, intra-arterial for 10 mins. It is filed as ADME, organism-based. The conditions noted are these: in vivo, read-out: Vdss.
Data set [4] deals with Oryctolagus cuniculus. The data set is described as follows: Prolongation of effective refractory period in rabbit ventricle at 0.3 to 10 mg/kg. In kind it is functional, organism-based.
Data set [5] is described as follows: Oral bioavailability in rat at 20 umol/kg. In kind it is ADME, organism-based. To be noted: in vivo.
The nature of data set [6]: Selectivity for human Kv1.5 channel over sodium channel.
A short description of data set [7]: Inhibition of calcium channel at 10 uM.
The nature of data set [8]: Terminal half life in rat at 10 umol/kg, intra-arterial for 10 mins. In kind it is ADME, organism-based. The conditions noted are these: in vivo, read-out: beta t1/2 (converted).
Data set [9] in a line: Selectivity for human Kv1.5 channel over calcium channel.
The subject of data set [10] is Oryctolagus cuniculus. The data set is described as follows: Prolongation of effective refractory period in rabbit atrium at 3 mg/kg. In kind it is functional, Cardiac atrium.
Data set [11] in a line: Plasma clearance in rat at 10 umol/kg, intra-arterial for 10 mins. In kind it is ADME, organism-based.
For a further data set, the target named is hERG (KCNH2) (Homo sapiens, UniProt Q12809). The data set is described as follows: Inhibition of human ERG at 10 uM.
A short description of data set [12]: Inhibition of sodium channel at 10 uM.
The species named for the next data set is Homo sapiens. Put plainly: Selectivity for human Kv1.5 channel over human ERG.

Here are results for 26 molecules from ChEMBL document CHEMBL1155962, “Dihydropyrazolopyrimidines containing benzimidazoles as K(V)1.5 potassium channel antagonists” (Bioorg Med Chem Lett, 2009).

Usually inhibition stands for the percentage by which the read-out fell short of the control. For orientation: IC50 means the concentration needed to halve the response being measured. The term bioavailability denotes the share of a dose that reaches the circulation, judged against a reference dose that is usually intravenous. A low value points to little systemic uptake. As a reminder, the clearance is a measure of how efficiently the substance is removed, as volume per time.

Activity calls are given as the source filed them. No cut-off for these calls is given here. Bounds are passed on as bounds.

T1 sequence (P22460 whole entry): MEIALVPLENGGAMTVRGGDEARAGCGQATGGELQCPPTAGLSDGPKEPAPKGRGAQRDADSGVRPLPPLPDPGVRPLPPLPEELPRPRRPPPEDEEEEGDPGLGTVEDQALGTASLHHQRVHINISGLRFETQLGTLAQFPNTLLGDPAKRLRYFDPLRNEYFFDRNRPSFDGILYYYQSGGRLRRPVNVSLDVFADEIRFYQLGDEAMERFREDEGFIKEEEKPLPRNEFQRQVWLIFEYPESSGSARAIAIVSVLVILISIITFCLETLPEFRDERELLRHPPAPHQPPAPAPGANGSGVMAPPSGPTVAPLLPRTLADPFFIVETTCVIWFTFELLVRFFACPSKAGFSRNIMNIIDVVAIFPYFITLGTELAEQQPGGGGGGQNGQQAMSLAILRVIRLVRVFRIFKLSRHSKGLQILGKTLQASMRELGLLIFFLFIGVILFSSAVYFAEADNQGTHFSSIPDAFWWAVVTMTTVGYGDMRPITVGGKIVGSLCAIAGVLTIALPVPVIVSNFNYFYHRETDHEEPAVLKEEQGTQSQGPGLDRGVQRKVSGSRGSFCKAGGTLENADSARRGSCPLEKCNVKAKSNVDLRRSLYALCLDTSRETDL
Sequence of hERG (KCNH2) (Q12809 whole entry): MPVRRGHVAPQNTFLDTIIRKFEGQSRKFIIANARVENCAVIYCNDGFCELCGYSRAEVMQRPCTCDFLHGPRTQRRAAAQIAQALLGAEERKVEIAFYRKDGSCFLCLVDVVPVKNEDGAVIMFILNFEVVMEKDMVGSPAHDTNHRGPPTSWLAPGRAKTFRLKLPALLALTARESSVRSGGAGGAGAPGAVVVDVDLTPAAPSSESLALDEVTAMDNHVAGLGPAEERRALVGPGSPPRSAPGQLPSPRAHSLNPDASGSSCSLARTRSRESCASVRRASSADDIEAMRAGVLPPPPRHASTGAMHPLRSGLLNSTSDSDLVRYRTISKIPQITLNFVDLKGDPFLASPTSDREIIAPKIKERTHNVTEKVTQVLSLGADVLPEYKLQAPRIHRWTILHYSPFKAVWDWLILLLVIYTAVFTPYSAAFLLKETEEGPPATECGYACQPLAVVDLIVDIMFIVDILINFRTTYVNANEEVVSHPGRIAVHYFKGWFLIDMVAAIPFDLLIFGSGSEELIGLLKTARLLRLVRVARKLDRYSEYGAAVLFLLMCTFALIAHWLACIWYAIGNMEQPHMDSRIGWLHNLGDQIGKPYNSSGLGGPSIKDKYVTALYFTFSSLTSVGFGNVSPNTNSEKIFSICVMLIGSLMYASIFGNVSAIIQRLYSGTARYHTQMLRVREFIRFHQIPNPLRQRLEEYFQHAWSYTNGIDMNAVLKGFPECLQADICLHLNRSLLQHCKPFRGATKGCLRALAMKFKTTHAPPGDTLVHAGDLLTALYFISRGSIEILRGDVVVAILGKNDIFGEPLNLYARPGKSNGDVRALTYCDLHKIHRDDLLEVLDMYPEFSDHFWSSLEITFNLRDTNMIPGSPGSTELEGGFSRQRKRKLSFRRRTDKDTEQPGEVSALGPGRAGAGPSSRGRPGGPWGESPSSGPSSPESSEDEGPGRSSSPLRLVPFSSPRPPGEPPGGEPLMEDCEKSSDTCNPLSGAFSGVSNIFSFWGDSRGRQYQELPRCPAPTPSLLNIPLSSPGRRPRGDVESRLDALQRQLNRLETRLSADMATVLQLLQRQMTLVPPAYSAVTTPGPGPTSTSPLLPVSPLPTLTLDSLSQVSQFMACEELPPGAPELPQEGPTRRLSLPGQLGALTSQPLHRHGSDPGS

In turn, `CC1=C(c2nc3cc(S(=O)(=O)Nc4ccccc4)ccc3n2C)C(c2ccc(Cl)c(Cl)c2)n2nccc2N1` (stereo not drawn) registered an inhibition in data set [1] of 30%. The IC50 in [2] is more than 1000 nM.
With `CC1=C(c2nc3cc(Cl)ccc3n2C(C)C)C(c2ccc(Cl)c(Cl)c2)n2nccc2N1` (stereo not drawn), in data set [2], the IC50 worked out at 94 nM.
Still for that read-out and setting: the figure for `CC1=C(c2nc3cc(C#N)ccc3n2C)C(c2ccc(Cl)c(Cl)c2)n2nccc2N1` (stereo not drawn) is 220 nM; for `CC1=C(c2nc3cc(Cl)ccc3n2C)C(c2ccc(Cl)c(Cl)c2)n2nccc2N1` (stereo not drawn) it is 68 nM.
With `CC1=C(c2ncc(-c3ccccc3)o2)C(c2ccc(Cl)c(Cl)c2)n2nccc2N1` (stereo not drawn), in data set [1], the inhibition worked out at 25%. The molecule further showed a half-maximal inhibitory concentration (IC50) in data set [2] of more than 1000 nM.
With `COCC1=C(c2nc3cc(F)ccc3n2C)C(c2ccc(Cl)c(Cl)c2)n2nccc2N1` (stereo not drawn), in data set [3], the Vd is 2.1 L/kg. In addition, the outcome with Oryctolagus cuniculus [4] was inactive. Further, the bioavailability in data set [5] is 37%. The Selectivity ratio (in data set [6]; in data set [9]; in the data set listed under Homo sapiens) was more than 200 each time. The results for the inhibition in data set [7] and in data set [12] were 13% and 27%, respectively. Moreover, the half-life in [8] was 90 min. The same molecule gave an Activity with Oryctolagus cuniculus [10] of more than 20%. The molecule also yielded a clearance in data set [11] of 42 mL/min/kg. In addition, the inhibition at 10 µM on hERG (KCNH2) turned out to be 47%. Moreover, the IC50 in data set [2] was determined as 30 nM.
Molecule `CC1=C(c2nc3cc(S(C)(=O)=O)ccc3n2C)C(c2ccc(Cl)c(Cl)c2)n2nccc2N1` (stereo not drawn) came in with an inhibition in [1] of 29%. Further, the 50% inhibitory concentration (IC50) in data set [2] is more than 1000 nM.
As to `CC1=C(c2nc3cc(F)ccc3n2C)C(c2ccc(Cl)c(Cl)c2)n2nccc2N1` (stereo not drawn), the Vd in [3] was 1.6 L/kg. In data set [5], this molecule yielded a bioavailability of 51%. The Selectivity ratio (in data set [6]; in data set [9]; in the data set listed under Homo sapiens) was more than 200 each time. Moreover, the half-life in data set [8] is 34.2 min. In data set [11], the clearance came out at 35 mL/min/kg. Also, on hERG (KCNH2), the inhibition at 10 µM amounted to 83%. Besides, the inhibition in data set [12] turned out to be 37%. Further, in [2], it took 15 nM to reach half-maximal inhibition (IC50).
The molecule `CC1=C(c2nc3cccc(C)c3n2C)C(c2ccc(Cl)c(Cl)c2)n2nccc2N1` (stereo not drawn) came in with an IC50 in data set [2] of 110 nM.
`CC1=C(c2nc3cccc(F)c3n2C)C(c2ccc(Cl)c(Cl)c2)n2nccc2N1` (stereo not drawn): the IC50 in data set [2] turned out to be 150 nM.
The same measure, in the same setting: the figure for `CC1=C(c2nc3ccc(Cl)cc3n2C)C(c2ccc(Cl)c(Cl)c2)n2nccc2N1` (stereo not drawn) is 660 nM; for `COC(=O)c1ccc2c(c1)nc(C1=C(C)Nc3ccnn3C1c1ccc(Cl)c(Cl)c1)n2C` (stereo not drawn) it is 200 nM.
With `CC(=O)Nc1ccc2c(c1)nc(C1=C(C)Nc3ccnn3C1c1ccc(Cl)c(Cl)c1)n2C` (stereo not drawn), in [1], the inhibition came out at 8%. For the same molecule, the IC50 in [2] is more than 1000 nM.
For `CC1=C(c2nc3cc(C)ccc3n2C)C(c2ccc(Cl)c(Cl)c2)n2nccc2N1` (stereo not drawn), the half-maximal inhibitory concentration (IC50) in data set [2] was found to be 200 nM.
Molecule `CC1=C(c2nc3ccccc3s2)C(c2ccc(Cl)c(Cl)c2)n2nccc2N1` (stereo not drawn) came in with an IC50 in [2] of 740 nM.
`CC1=C(c2nc3cccc(Cl)c3n2C)C(c2ccc(Cl)c(Cl)c2)n2nccc2N1` (stereo not drawn) registered an IC50 in [2] of 71 nM.
Still for that read-out and setting: the figure for `CCCn1c(C2=C(C)Nc3ccnn3C2c2ccc(Cl)c(Cl)c2)nc2cc(F)ccc21` (stereo not drawn) is 48 nM; for `CC1=C(c2nc3c(F)cccc3n2C)C(c2ccc(Cl)c(Cl)c2)n2nccc2N1` (stereo not drawn) it is 64 nM; for `CC1=C(c2nc3ccccc3n2C)C(c2ccc(Cl)c(Cl)c2)n2nccc2N1` (stereo not drawn) it is 75 nM.
In data set [1], `CCCCc1nnc(C2=C(C)Nc3ccnn3C2c2ccc(Cl)c(Cl)c2)o1` (stereo not drawn) returned an inhibition of 29%. The half-inhibitory concentration (IC50) in data set [2] was more than 1000 nM.
In the same order, the values of `CC1=C(c2nnc(-c3ccccc3)o2)C(c2ccc(Cl)c(Cl)c2)n2nccc2N1` (stereo not drawn) are 18% and more than 1000 nM.
The molecule `CC1=C(c2nc3cccc(C)c3[nH]2)C(c2ccc(Cl)c(Cl)c2)n2nccc2N1` (stereo not drawn) registered a half-inhibitory concentration (IC50) in data set [2] of 150 nM.
Same read-out and setting: the figure for `CC1=C(c2nc3ccccc3[nH]2)C(c2ccc(Cl)c(Cl)c2)n2nccc2N1` (stereo not drawn) is 510 nM; for `CC1=C(c2nc3ccc(C)cc3n2C)C(c2ccc(Cl)c(Cl)c2)n2nccc2N1` (stereo not drawn) it is 980 nM; for `CC1=C(c2nc3cc(C(F)(F)F)ccc3n2C)C(c2ccc(Cl)c(Cl)c2)n2nccc2N1` (stereo not drawn) it is 540 nM.
Take `CCn1c(C2=C(C)Nc3ccnn3C2c2ccc(Cl)c(Cl)c2)nc2cc(Cl)ccc21` (stereo not drawn): the IC50 in data set [2] was determined as 57 nM.
